Source: the METLIN SMRT retention time set (Domingo-Almenara et al. 2019)

experiment: gradient 5% acetonitrile 3 min, to 50% in 2 min, to 85% in 15 min, held 3 min, 100 µL/min; details: column: Zorbax Extend-C18 2.1 x 50 mm; eluents: water / acetonitrile, 0.1% formic acid
In short: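 In both positive and negative ionization mode, a quadrupole time-of-flight mass spectrometer coupled to HPLC analyzed pure standards run in mixtures of ~100 molecules. The Zorbax Extend-C18 column (2.1 × 50 mm, 1.8 μm) was operated at 100 μL/min with water and acetonitrile, each containing 0.1% formic acid. The dead volume was 40 μL and the dwell volume 900 μL. Retention time came from adduct peaks that were computationally picked and individually inspected by hand.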

RP-LC retention time [s]	SMILES
1020	Cc1ccccc1OCc1nc(CCN(C)C(=O)CC2CCCC2)no1
970	O=C(c1cccc(Cl)c1)N1CCC2(CC1)N=C(c1cccc(Br)c1)NO2
570	CC1CCCCN1CCNC(=O)C1CCCN(c2cnc3nccnc3c2)C1 (stereo not given)
754	COc1ccc(C2(C(=O)N3CCN(S(=O)(=O)c4c(C)nn(C)c4C)CC3)CC2)cc1
949	Cc1cc(C)n(-c2ccc(C(=O)N3CCN(c4ccccc4)CC3)cn2)n1
759	COc1ccccc1N1CCN(C(=O)Cn2c(N3CCc4ccccc4C3)nc(C)cc2=O)CC1
892	N#C/C(=C\c1ccc[nH]1)C(=O)c1ccccc1
592	CCC1CN(C(=O)N2CCC(C(=O)NCCCN3CCN(C)CC3)CC2)c2ccccc2O1 (stereo not given)
722	CCn1cc(-c2ccc(F)cc2)cc1C(=O)NCc1ccccn1
959	COc1ccc2c(c1)C=C(C(=O)NCCc1ccccc1)C=CO2
678	COc1ccc(CNC(=O)COc2nc(C)nc3ccccc23)cc1
551	OC1(c2ccccc2)CN(c2ccccc2)C2=[N+]1CCS2 (stereo not given)
727	Cc1ccccc1NC(=O)N1CCC2(C1)C(=O)Nc1ccccc12 (stereo not given)
568	CC(C)CN1C(=O)c2cccn2CC1C(=O)NCCN1CCOCC1 (stereo not given)
749	Clc1ccccc1-c1nc(-c2ccc(-n3ccnc3)nc2)no1
659	Cc1[nH]c2ccccc2c1CCNCc1ccc(/C=C/C(=O)NO)cc1
645	Cn1cccc(C(=O)Nc2nc3c(s2)CN(S(=O)(=O)C2CC2)CC3)c1=O
619	CCN(CC)CCCNS(=O)(=O)c1cc(-c2cc(C)no2)cs1
960	Brc1ccc(OCc2nnc3sc(-c4ccccn4)nn23)cc1
749	O=S(=O)(c1ccccc1)N1CCC(n2cnnc2-c2ccccc2)CC1
833	CCOc1ccc2nc(Nc3ncc4c(n3)CC(c3ccc(F)cc3)CC4=O)nc(C)c2c1 (stereo not given)
739	Cc1ccc(Nc2c(-c3ccc(N4CCOCC4)cc3)nc3ccc(C)cn23)cc1

RP-LC retention time [s]	SMILES
804	O=C(Cn1c(=O)oc2ccc(C(=O)N3CCCCC3)cc21)N1CCc2ccccc2C1
582	CCOCC(=O)N1C[C@H]2C[C@H](C1)[C@H]1CCCC(=O)N1C2
699	CC(C)c1ccc2c(c1)-c1ccccc1S(=O)(=O)N2CC(=O)NCc1ccncc1
713	Cc1cc(=O)n(CC(=O)NC(C)CCc2ccccc2)c(N2CCOCC2)n1 (stereo not given)
621	NC1CCN(O)C1=O (stereo not given)
681	COc1ccc(OCc2noc(CNC(=O)Cc3c[nH]c4ccccc34)n2)cc1
1120	Cc1cccc(C2(O)C(=O)N(Cc3nc(-c4ccccc4)oc3C)c3ccccc32)c1 (stereo not given)
998	C=CCN1C(=O)COc2ccc(-c3nc(NC(=O)c4cccs4)sc3C)cc21
888	Cn1c(=O)c(N2CCC(NC(=O)Nc3ccc(F)cc3F)CC2)nc2ccccc21
1070	O=S(=O)(NCc1cccs1)c1cc(-c2nnc(-c3ccccc3)o2)ccc1F
1090	CCOc1ccccc1-c1noc(Cn2c(=O)n(Cc3ccccc3)c(=O)c3sccc32)n1
656	COC[C@@H]1CN(Cc2cn(C)c3ccccc23)C[C@H]1c1nc(C)no1
715	O=C(Nc1cnc(N2CCOCC2)c(C(=O)O)c1)c1ccc(Br)cc1
605	COc1ccc(CNC(=O)c2cn3ccccc3n2)cc1OC
1120	CCOc1cccc(Cn2c(=O)c3sccc3n(Cc3nc(-c4ccc(C)cc4)no3)c2=O)c1
848	O=C(CN1C(=O)CCCc2cc(S(=O)(=O)N3CCCC3)ccc21)NC1CCCCCC1
651	CC(=O)NS(=O)(=O)c1ccc(NC(=O)NC2CC(=O)N(c3ccc(C)cc3)C2)cc1 (stereo not given)
1120	Cc1ccccc1NC(=O)Cn1nc(N2CCCC(C)C2)c2ccccc2c1=O (stereo not given)
764	Cc1ccc(-c2noc(-c3cccn(CC(=O)NC(C)C)c3=O)n2)cc1
816	CN1C(=O)c2cc(C(=O)NCCc3ccccc3Cl)nn2CC1(C)C(=O)NCc1ccccc1 (stereo not given)
616	O=C(CCc1nnn2c1CN(C(=O)C1CCCC1)CC2)N1CCOCC1
1030	COc1ccccc1-c1nc(COc2cc(C)c3c(C)nn(C)c3n2)c(C)o1

RP-LC retention time [s]	SMILES
654	Cn1nnnc1SCC(=O)NCCOc1ccc(-c2ccc(F)cc2)nn1
897	Cc1ccc(-c2noc(Cn3ccn(-c4ccccc4)c(=O)c3=O)n2)cc1C
725	CN(CC1CCOCC1)C(=O)c1cc(F)cc(F)c1
833	Cc1sc2ccn(C)c(=O)c2c1C(=O)NCc1ccc(OC(C)C)cc1
812	Cc1noc(-c2cc(=O)n(CC(=O)NCc3ccccc3)c3ccccc23)n1
913	CCCNC(=O)CN1C(=O)CC(c2ccc(Br)s2)=Nc2ccccc21
1320	Cc1sc(-c2cc(C(F)(F)F)on2)cc1S(=O)(=O)NCCC1=CCCCC1
748	COc1ccc2[nH]cc(CCN3CC(C(=O)Nc4ccccc4)CC3=O)c2c1 (stereo not given)
802	CSc1ccc(-c2nc3ccccn3c2NC2CCCCC2)cc1
722	CC(C(=O)N1CCC(c2cc(N)on2)CC1)c1ccccc1 (stereo not given)
903	CCc1ccc(Oc2cc(N3CCC(C(=O)NCCCOC(C)C)CC3)ncn2)cc1
653	COc1cccc(S(=O)(=O)N2CCC3(CC2)N(C)C(=O)CS3=O)c1 (stereo not given)
621	O=C(NCCN1CCOCC1)C1CCN(Cc2cc3ccccc3n2Cc2ccccc2Cl)CC1
808	O=C(NCc1ccc(Cl)cc1)C1CCCN(c2nn3c(=O)c4c(nc3s2)CCCC4)C1 (stereo not given)
820	O=c1ccc(N2CCCN(S(=O)(=O)c3ccccc3F)CC2)nn1-c1ccccc1
868	Cc1cc(C)c(CN2CCn3c(nn(C)c3=O)C2)c(C)c1
557	FC(F)(F)c1nc2ccccc2n1CC1CCN(Cc2cn3ccccc3n2)CC1
1020	Cc1ccc(N2CCN(S(=O)(=O)c3cc4c(s3)CCN(C(=O)C3CC3)C4)CC2)cc1
853	Cn1nc(CNC(=O)COc2ccc(Cl)cc2)c2ccccc21
834	CCn1nccc1C(=O)Nc1cnc(N2CCCCCC2)nc1
963	Cc1cc(C)cc(Oc2nccn3c(=O)n(CC(=O)Nc4ccccc4Cl)nc23)c1
747	CCN(C(=O)Cn1ccc2c(=O)n(C)c(=O)n(C)c21)c1cccc(Cl)c1

RP-LC retention time [s]	SMILES
717	O=C(Nc1cnc2ccccc2c1)c1cccc([N+](=O)[O-])c1
1010	COc1cc(OC)cc(-c2nc(-c3cccc(-c4ccn[nH]4)c3)no2)c1
787	Cc1ccccc1Nc1c(-c2cccc(Cl)c2)nc2ccccn12
848	CCC(=O)c1cn(CC(=O)NC(C)c2ccc3c(c2)OCCCO3)c2ccccc12 (stereo not given)
920	CCCC(C(=O)OCCN(CC)CC)(c1ccccc1)c1ccccc1
929	COc1ccc(-c2cc3n(n2)CCCN(C(=O)NCc2ccccc2)C3)cc1OC
897	O=C(Nc1ccc(F)cc1F)C1CCCN(S(=O)(=O)c2c[nH]c(C(=O)N3CCCCCC3)c2)C1 (stereo not given)
982	CCOc1ccc(-c2cc3c(=O)n(Cc4nc(-c5ccc(F)c(Cl)c5)no4)ncn3n2)cc1
724	CCOC(=O)C1CCN(c2cc3c(cc2NC(=O)CC)n(C)c(=O)c(=O)n3C)CC1
580	O=C(NCCCOc1cccc2cccnc12)c1ccc(F)cc1Cl
938	Cc1ccc(C(=O)N2CCC3(CC2)N=C(c2cccc(Br)c2)NO3)cc1
1210	O=C1COc2cc(Cl)ccc2N1Cc1nc(-c2ccc(F)c(Br)c2)no1
638	CCCCN1CCN(C(=O)c2cnc(-c3ccccc3)nc2-c2ccncc2)CC1
916	Cc1ccc(N2CCN(C(=O)c3cn(-c4cc(N5CCSCC5)ncn4)cn3)CC2)cc1
626	COc1ccc(NC(C)=O)cc1NC(=O)C1CC(=O)N(c2n[nH]c3ccccc23)C1 (stereo not given)
780	CCOC(=O)c1csc(NC(=O)c2ccccc2Br)n1
966	O=C(C1CCCCC1)N1CCCC1c1nc2ccccc2s1 (stereo not given)
1150	Cc1nn(-c2nc(-c3ccc(F)cc3)cs2)c(C)c1CC(=O)Nc1ccc(F)cc1
694	Oc1ccc(-c2ccc(F)cc2)cc1CN1CCCCCC1
945	CCN(C(=O)c1cc2c(=O)n(CC)c3ccccc3n2n1)c1ccc(F)cc1

SMILES	RP-LC retention time [s]
CC(N)c1cccc(Cl)c1Cl (stereo not given)	636
C#C[C@]1(O)CC[C@H]2[C@@H]3CCC4=CC(=O)CCC4=C3C=C[C@@]21CC	1050
CCC(CC)C(=O)N1CCC2(CC1)NCc1ccccc1-n1ccnc12	580
Cc1noc(C)c1S(=O)(=O)N1[C@H]2CC[C@@H]1c1cnc(-c3ccc(F)cc3)nc1C2	1060
